Activity calls are given as the source filed them.
Key:
[1] = NIH-3T3 fibroblast cytotoxicity, dose response, cytotoxicity control, cell-based, fluorescence, Alamar Blue, secondary assay (AID 2327); format: functional;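 further: NIH-3T3 mouse fibroblasts cultured with fluconazole at 8 µg/mL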
[2] = luciferase reporter signal suppression in cells – H4 neuroglioma cells, luminescence, dose response (AID 1990); format: functional, cell-based
[3] = test system: Streptococcus sp. 'group A'; assay: Streptococcus pyogenes SK(-)GAS viability under kanamycin – luminescence, BacTiterGlo, confirmation, counter-screen for streptokinase expression inhibitor project, dose response (AID 1900); format: functional, organism-based
[4] = Luminescence Cell-Based Dose Response HTS to Identify Inhibitors of 5'UTR Stem-Loop Driven Prion Protein mRNA Translation in H4 Neuroglioblastoma Cells. [Related pubchem assays: 1827 (Project Summary), 1813 (Primary HTS)]; format: functional
[5] = alpha-synuclein stem-loop luciferase translation blockers – H4 neuroglioma cells, luminescence, confirmation (AID 1988); format: functional, cell-based
[6] = fluconazole-exposed Candida albicans growth modulators – fluorescence, retest, confirmation (AID 2467); format: functional, cell-based
[7] = test system: Streptococcus; assay: GAS UMAA2166 growth inhibition – luminescence, BacTiterGlo, counter-screen for streptokinase expression inhibitor project, dose response (AID 1915); format: functional, organism-based;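 further: potency for reduction of bacterial viability or growth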
[8] = target: T1, Short transient receptor potential channel 4 (Mus musculus, UniProt Q9QUQ5); assay: calcium entry via TRPC4 opening agents – cell-based, HEK293 TRPC4/mu-opioid, Fluo-4 calcium, dose response (AID 434937); format: functional
T1 sequence (Q9QUQ5 whole entry): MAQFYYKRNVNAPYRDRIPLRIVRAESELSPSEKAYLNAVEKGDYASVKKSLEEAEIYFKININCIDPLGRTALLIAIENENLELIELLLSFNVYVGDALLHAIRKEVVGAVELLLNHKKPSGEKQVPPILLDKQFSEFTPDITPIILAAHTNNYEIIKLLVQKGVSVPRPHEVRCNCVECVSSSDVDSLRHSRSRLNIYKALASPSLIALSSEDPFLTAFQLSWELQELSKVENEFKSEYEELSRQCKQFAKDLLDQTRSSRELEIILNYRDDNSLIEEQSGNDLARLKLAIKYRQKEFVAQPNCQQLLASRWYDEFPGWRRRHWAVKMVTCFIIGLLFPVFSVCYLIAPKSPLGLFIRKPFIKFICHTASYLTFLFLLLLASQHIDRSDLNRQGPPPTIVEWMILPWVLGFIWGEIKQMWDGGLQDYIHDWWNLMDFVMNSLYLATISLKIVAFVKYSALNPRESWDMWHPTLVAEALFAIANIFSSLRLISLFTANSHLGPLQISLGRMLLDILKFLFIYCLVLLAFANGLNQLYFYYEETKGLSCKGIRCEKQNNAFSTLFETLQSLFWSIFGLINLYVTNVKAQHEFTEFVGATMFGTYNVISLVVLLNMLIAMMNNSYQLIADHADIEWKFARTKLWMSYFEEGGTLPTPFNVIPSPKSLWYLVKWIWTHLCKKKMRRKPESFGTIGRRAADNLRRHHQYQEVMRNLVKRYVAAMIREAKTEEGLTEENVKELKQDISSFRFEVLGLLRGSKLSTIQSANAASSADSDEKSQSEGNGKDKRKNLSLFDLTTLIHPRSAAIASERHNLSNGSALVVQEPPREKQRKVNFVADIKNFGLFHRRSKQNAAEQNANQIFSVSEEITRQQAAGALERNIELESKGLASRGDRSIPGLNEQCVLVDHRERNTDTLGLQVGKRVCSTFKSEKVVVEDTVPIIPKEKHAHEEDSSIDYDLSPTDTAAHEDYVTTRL

[9] = target: Heat shock protein HSP 90-alpha (Homo sapiens, UniProt P07900); format: functional, organism-based
[10] = test system: Vero; assay: cells; format: functional; conditions: Chlorocebus sabaeus
[11] = target: T2, DNA repair protein RAD52 homolog (Homo sapiens, UniProt P43351); format: functional, biochemical
T2 sequence (P43351 whole entry): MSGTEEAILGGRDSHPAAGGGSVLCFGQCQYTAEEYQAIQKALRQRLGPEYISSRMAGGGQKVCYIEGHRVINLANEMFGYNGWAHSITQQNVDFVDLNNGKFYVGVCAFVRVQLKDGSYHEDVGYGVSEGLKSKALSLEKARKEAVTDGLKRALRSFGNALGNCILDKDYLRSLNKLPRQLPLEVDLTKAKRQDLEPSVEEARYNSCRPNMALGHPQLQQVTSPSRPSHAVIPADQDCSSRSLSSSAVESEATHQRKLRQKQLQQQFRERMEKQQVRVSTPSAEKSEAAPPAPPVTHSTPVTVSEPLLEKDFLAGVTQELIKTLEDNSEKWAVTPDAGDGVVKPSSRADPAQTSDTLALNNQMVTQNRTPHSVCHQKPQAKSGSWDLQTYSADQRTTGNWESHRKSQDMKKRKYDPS

[12] = Luminescence Cell-Based Dose Retest to Confirm Inhibitors of Cancer Stem Cells. [Related pubchem assays (depositor defined):AID2717, AID2721]; format: functional; conditions: Homo sapiens
[13] = target: T3, Fatty acid synthase (Homo sapiens, UniProt P49327); assay: inhibition of human FAS-TE enzyme activity – biochemical, endpoint fluorescence intensity, uHTS hits, dose response (AID 624327); format: functional;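 further: fluorescence from hydrolysis of an O-methyl fluorescein acyl ester substrate by the enzyme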
T3 sequence (P49327 whole entry): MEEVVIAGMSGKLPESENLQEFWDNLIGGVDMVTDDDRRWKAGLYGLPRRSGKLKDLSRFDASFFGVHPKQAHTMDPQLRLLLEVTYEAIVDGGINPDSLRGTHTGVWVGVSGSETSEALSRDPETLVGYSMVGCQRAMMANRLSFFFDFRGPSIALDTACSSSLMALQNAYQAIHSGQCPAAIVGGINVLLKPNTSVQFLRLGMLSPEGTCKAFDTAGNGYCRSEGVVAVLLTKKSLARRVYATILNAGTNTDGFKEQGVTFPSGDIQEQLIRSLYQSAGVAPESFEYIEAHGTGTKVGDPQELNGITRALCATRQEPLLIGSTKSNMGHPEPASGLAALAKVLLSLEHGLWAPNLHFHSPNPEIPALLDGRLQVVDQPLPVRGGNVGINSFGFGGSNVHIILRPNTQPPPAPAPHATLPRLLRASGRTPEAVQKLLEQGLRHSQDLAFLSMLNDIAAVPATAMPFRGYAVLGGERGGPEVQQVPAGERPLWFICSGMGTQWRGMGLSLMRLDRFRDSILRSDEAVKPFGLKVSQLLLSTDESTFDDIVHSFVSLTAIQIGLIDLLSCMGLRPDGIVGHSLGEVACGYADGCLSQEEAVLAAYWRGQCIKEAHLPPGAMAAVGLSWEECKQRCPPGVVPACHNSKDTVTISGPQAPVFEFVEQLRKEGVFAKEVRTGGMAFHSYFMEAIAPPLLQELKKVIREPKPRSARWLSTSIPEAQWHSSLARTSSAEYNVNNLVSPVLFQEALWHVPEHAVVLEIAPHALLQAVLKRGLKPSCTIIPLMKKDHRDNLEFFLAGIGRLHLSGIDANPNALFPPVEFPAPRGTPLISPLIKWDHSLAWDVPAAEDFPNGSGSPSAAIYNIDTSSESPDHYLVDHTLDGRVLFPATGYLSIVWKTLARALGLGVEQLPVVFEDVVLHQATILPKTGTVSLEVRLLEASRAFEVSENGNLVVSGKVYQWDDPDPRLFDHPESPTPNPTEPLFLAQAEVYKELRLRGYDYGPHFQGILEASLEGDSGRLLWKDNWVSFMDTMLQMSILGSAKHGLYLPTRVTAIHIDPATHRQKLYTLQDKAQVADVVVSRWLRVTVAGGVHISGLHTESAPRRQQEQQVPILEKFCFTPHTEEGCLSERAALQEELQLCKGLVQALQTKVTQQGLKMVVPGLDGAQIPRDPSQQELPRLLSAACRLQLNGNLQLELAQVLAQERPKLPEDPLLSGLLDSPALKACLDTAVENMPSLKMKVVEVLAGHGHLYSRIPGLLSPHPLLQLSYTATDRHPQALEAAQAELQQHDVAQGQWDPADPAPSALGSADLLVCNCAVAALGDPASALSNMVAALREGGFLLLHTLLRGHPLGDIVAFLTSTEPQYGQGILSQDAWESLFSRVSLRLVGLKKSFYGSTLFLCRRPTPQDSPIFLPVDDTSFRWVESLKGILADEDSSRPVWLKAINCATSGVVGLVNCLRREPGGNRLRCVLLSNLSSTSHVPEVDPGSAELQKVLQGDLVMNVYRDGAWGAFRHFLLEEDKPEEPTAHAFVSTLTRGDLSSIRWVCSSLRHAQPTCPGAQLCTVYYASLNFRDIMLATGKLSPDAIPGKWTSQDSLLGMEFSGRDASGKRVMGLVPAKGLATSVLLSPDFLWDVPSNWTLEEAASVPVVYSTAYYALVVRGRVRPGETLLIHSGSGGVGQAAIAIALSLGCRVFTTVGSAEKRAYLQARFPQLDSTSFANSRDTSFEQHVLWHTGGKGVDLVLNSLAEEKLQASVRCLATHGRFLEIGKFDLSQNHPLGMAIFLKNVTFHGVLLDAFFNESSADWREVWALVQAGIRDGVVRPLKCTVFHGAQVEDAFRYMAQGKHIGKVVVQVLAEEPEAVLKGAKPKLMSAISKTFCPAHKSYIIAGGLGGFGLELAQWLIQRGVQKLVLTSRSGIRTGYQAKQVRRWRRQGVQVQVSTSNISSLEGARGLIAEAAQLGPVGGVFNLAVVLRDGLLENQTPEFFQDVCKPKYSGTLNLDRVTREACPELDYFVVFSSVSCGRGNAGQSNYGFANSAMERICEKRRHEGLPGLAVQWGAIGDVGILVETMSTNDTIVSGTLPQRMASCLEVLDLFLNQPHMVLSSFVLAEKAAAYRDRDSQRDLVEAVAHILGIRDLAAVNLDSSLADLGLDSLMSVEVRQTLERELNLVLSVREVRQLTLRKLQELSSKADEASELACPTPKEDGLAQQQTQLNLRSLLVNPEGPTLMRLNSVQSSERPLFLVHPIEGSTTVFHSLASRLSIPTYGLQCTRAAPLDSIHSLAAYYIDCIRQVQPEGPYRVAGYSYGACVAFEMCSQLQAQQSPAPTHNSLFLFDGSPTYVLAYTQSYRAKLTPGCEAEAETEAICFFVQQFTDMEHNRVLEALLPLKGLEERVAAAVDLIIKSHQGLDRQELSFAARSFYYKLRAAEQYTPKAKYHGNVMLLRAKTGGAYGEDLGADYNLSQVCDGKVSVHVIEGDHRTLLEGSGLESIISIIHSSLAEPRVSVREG

[14] = target: T3, Fatty acid synthase; assay: inhibition of human FAS-TE enzyme activity – biochemical, kinetic fluorescence intensity, dose response (AID 624326); format: functional;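 further: rate of fluorescence rise from hydrolysis of a fluorogenic O-methyl fluorescein ester substrate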
[15] = test system: HEK293; assay: EBV LMP1 TES2 canonical NF-kB signalling blockers – cell-based, HEK293, luciferase, cherry-pick, dose response (AID 588343); format: functional; conditions: Homo sapiens
[16] = Trypanosoma cruzi growth suppression in host cells – NIH3T3 host cells, beta-gal luminescence, confirmation (AID 2044); format: functional, cell-based;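 further: intracellular parasites grown in NIH/3T3 mouse fibroblasts as host cells; luminescent beta-galactosidase reporter signal from transgenic T. cruzi replicating inside host cells; inhibitors lower the luminescence signal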
[17] = NIH3T3 cell viability loss – ATP luminescence, mouse fibroblasts, counter-screen, dose response (AID 2010); format: functional, cell-based;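 further: cells exposed to compound for about 90 hours before reading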
[18] = target: Photoreceptor-specific nuclear receptor (Homo sapiens, UniProt Q9Y5X4); format: functional, cell-based;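 further: CHO-S cells with Gal4-NCOR and VP16-NR2E3 two-hybrid luciferase reporter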
Sequence of Photoreceptor-specific nuclear receptor (Q9Y5X4 whole entry, the tested form may be a part): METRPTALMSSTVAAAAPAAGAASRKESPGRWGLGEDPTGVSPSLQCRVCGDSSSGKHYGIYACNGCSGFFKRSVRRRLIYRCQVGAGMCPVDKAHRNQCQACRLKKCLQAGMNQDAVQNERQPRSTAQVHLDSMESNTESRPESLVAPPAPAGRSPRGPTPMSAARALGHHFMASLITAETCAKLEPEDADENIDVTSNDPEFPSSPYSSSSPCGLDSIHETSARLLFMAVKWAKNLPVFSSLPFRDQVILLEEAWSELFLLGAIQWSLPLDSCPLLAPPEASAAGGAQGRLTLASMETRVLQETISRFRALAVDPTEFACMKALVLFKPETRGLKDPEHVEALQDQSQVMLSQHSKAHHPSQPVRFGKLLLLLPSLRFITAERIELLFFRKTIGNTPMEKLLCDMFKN

[19] = microbe, parasite or virus in culture; format: functional; conditions: Mycobacterium tuberculosis
[20] = target: T4, High affinity choline transporter 1 (Homo sapiens, UniProt Q9GZV3); assay: human choline transporter blockers, potency – cell-based, 5-point CRC, membrane potential dye, dose response (AID 504840); format: functional
T4 sequence (Q9GZV3 whole entry): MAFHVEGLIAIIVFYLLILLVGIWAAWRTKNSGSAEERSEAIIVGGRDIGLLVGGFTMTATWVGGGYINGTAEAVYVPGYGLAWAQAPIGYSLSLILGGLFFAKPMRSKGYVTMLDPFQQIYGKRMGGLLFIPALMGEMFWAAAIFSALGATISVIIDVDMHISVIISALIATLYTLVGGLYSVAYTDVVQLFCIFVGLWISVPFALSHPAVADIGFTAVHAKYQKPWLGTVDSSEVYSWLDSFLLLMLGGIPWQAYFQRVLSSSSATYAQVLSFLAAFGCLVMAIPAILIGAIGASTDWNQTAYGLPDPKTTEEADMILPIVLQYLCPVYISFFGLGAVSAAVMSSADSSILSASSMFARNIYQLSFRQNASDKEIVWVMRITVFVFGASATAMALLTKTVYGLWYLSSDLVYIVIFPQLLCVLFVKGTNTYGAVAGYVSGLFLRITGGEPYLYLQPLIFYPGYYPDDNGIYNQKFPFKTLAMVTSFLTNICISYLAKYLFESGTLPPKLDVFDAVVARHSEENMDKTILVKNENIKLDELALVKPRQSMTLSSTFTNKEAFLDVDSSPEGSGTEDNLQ

[21] = cells; format: functional
[22] = HEK-293T viability loss after treatment – luminescence, T-cell screen hits, cytotoxicity control for TCR NF-kB inhibitor project, dose response (AID 489026); format: functional, cell-based;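 further: cells exposed to compound about 14 hours before the viability readout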
[23] = target: T5, Histone-lysine N-methyltransferase NSD2 (Homo sapiens, UniProt O96028); format: biochemical
T5 sequence (O96028 whole entry): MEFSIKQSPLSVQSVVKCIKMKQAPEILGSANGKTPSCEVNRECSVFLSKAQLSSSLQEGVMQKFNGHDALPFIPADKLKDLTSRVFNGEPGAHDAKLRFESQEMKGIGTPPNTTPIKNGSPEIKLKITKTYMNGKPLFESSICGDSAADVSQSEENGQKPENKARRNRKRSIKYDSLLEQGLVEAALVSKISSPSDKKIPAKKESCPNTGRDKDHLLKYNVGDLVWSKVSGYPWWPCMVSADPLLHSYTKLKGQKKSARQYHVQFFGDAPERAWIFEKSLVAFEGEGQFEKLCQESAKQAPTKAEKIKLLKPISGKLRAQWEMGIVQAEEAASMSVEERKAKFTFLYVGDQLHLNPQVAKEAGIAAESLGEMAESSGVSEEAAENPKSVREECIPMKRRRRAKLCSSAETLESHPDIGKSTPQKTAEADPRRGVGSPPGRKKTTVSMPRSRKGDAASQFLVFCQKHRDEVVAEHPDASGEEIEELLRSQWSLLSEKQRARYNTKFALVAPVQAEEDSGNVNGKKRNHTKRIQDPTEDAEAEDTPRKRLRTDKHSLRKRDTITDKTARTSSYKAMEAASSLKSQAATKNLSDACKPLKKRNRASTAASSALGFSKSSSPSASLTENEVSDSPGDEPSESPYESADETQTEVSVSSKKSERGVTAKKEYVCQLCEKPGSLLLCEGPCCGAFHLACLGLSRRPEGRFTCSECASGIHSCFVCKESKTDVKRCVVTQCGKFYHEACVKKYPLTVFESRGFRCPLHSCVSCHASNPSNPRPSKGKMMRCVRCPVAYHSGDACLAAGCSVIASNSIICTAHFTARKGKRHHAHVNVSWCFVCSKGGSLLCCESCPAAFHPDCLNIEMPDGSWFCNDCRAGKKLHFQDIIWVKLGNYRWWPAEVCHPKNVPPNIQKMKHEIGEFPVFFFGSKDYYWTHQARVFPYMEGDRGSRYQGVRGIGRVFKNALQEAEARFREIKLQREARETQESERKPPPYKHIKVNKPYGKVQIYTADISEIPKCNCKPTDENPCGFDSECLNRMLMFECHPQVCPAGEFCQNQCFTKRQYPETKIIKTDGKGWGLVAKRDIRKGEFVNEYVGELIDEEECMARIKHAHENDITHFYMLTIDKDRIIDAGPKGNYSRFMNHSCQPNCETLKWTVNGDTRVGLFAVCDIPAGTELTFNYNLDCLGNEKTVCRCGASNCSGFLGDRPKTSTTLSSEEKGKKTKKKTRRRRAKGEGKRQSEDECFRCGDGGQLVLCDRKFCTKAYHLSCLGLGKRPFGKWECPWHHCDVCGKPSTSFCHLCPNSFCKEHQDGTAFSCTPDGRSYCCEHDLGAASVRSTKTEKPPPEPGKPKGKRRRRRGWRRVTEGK

[24] = target: Induced myeloid leukemia cell differentiation protein Mcl-1 (Homo sapiens, UniProt Q07820); format: functional
Sequence of Induced myeloid leukemia cell differentiation protein Mcl-1 (Q07820 whole entry): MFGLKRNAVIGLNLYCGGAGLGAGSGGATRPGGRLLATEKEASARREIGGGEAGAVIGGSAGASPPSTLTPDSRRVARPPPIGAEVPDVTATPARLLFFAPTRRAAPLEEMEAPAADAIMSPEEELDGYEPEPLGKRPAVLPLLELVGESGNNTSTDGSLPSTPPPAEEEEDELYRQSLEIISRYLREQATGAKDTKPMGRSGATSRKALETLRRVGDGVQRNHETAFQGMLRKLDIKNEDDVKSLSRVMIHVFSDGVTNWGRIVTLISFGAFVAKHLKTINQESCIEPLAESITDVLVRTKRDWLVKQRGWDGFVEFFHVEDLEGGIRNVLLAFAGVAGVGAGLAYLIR

[25] = viability of uninfected HEp-2 cells – cell-based, HTS, cytotoxicity control for RSV inhibitor project, dose response (AID 2410); format: functional; conditions: human respiratory syncytial virus

COc1ccc(C(=O)NNC(=S)NC(=O)c2ccccc2)cc1
EC50 [1]: > 150 µM (inactive)
EC50 [2]: > 120 µM (not active)
EC50 [3]: 1.18 µM (active)
EC50 [4]: 11.6 µM (active)
EC50 [5]: 15.5 µM (active)
EC50 [6]: 2.08 µM (active)
EC50 [7]: 3.03 µM (active)
EC50 [8]: 5.96 µM (active)

CCN1C(=O)/C(=C\C(=O)c2cccs2)c2cc(Br)ccc21
AC50 [9]: 3.66 µM (active)
CC50 [10]: > 25 µM (active)

COc1cc2cc(-c3ccc(OC)c(OC)c3C)nc(N)c2cc1OC
EC50 [2]: 0.597 µM (active)
EC50 [4]: 0.48 µM (active)
EC50 [5]: 0.344 µM (active)
CC50 [10]: 1.67 µM (active)
AC50 [11]: 12.4 µM (active)

COc1ccc(-c2csc3nc(-c4ccccc4F)oc(=O)c23)cc1OC
AC50 [12]: 5.19 µM (active)
IC50 [13]: 9.02 µM (active)
IC50 [14]: 6.25 µM (active)

COc1ccc(NC(=O)c2cc3ccccc3oc2=O)cc1
AC50 [15]: 0.673 µM (active)

CN=C(S)N=CNOCc1ccc(Cl)cc1Cl
EC50 [1]: 7.07 µM (inconclusive)
EC50 [6]: < 0.03 µM (active)
EC50 [16]: 0.368 µM (active)
EC50 [17]: 7.02 µM (active)
IC50 [18]: 3.21 µM (active)

Cc1c(Cl)ccc2sc(N3CCN(C(=O)C4=COCCO4)CC3)nc12
CC50 [19]: 38.1 µM (active)
IC50 [18]: 4.06 µM (active)

CCC1(C)Cc2c(sc3[nH]c(=S)n(Cc4ccccc4)c(=O)c23)CO1 (configuration not stated)
IC50 [18]: 4.95 µM (active)

CCOc1cc(/C=C/C(=O)c2ccc(C)cc2)ccc1OCC(=O)N(C)C
CC50 [10]: > 25 µM (active)

O=C1CC(O)(C(F)(F)F)Oc2c1ccc1ccccc21 (configuration not stated)
EC50 [8]: 9.44 µM (active)
IC50 [20]: 12.9 µM (active)

CC(C)(C)C(=O)Nc1ccc(Sc2ccc([N+](=O)[O-])cc2)cc1
IC50 [18]: 3.51 µM (active)

CCC(=O)N1CCCc2cc(S(=O)(=O)N3CCN(c4ccccn4)CC3)ccc21
IC50 [18]: 2.3 µM (active)

COc1ccc(/C=C/c2nc3ccccc3c(=O)o2)cc1
EC50 [2]: 8.15 µM (inconclusive)
EC50 [4]: 3.01 µM (active)
EC50 [5]: 7.8 µM (inconclusive)
IC50 [21]: 21.5 µM (active)
AC50 [15]: 0.507 µM (active)

CC1=C(C(=O)OCc2ccc3c(c2)OCO3)C(c2ccc(Cl)cc2)NC(=O)N1 (configuration not stated)
IC50 [22]: > 80 µM (inactive)
AC50 [15]: 0.299 µM (active)

CCCCN(CC)CCNC(=O)c1ccc2c(Cl)c3c(nc2c1)CCC3
EC50 [8]: 0.024 µM (active)
AC50 [23]: > 20 µM (inactive)

NC(=S)n1nc(-c2ccc([N+](=O)[O-])cc2)c(/N=N/c2ccc(Cl)cc2)c1O
IC50 [24]: > 54 µM (active)
IC50 [13]: 17.5 µM (active)
IC50 [14]: 9.27 µM (active)

O=C(Nc1ccc(CN2CCOCC2)cc1)c1ccc(-c2cc(Cl)ccc2Cl)o1
CC50 [25]: 4.45 µM (active)
CC50 [19]: 29.3 µM (active)
CC50 [10]: 21.1 µM (active)

From ChEMBL document CHEMBL1201862, “PubChem BioAssay data set” (2004)
